1 compound from patent US11078496B2, “System for F-box hormone receptor regulated protein expression in mammalian cells” (ICAHN SCHOOL OF MEDICINE AT MOUNT SINAI, priority 2016, dated 2021) can be followed below.

This assay has as its target T1, AID^47-NANOG (A-NANOG) (UniProt P93830+Q7XVM8).
T1 construct: (encoding NP_001052659); 47-amino acid segment that corresponds to amino acids 63-109 of A. thaliana IAA17; expressed in transfected cells; host or cells: CCE mESCs (lentiviral pRAIDRS)
The experiment in a line: Auxin-dependent depletion of A-NANOG in mESCs (western blot). The format is cell-based, mouse. As to the method: FIGS. 3A-3D illustrate an auxin-degradable NANOG rescue system in mESCs. CCE mESCs were infected with pRAIDRS AID^47-NANOG (A-NANOG) or GFP-AID^47 (“GFP-A”) and selected clones with ESC morphology were analyzed for the effect of auxin (“IAA”) treatment. FIG. 3A is a western blot analysis depicting endogenous NANOG (*) and A-NANOG (**) in parental mESCs, and in the indicated clones. β-Actin serves as a loading control. Experiment was repeated three times and a representative blot is presented. FIG. 3B are images of mESC clones plated at low density, grown in the presence of ethanol (“Con”) or auxin (“IAA”) for 3-4 days and assayed for AP activity. GFP-A mESCs reached the desired confluency a day earlier and therefore the images were taken on different days. FIG. 3C are bright-field images showing representative morphology of A-NANOG mESCs following 3 days of ethanol (“Con”) or auxin (“IAA”) treatment (upper part) and merged bright-field and GFP fluorescence images of ethanol or auxin-treated GFP-A mESCs (lower part). Scale bars, 100 μm. […] All cells were subjected to the same concentration of ethanol for the duration of experiment. Quantitative real-time PCR analysis was performed for selected self-renewal and differentiation markers, and normalized expression levels are represented as a heatmap. […] See also FIGS. 4A-4F and FIG. 15. […]
(In general: In western blotting, separated proteins are transferred to a membrane and probed.)

T1 sequence (Q7XVM8 whole entry, the tested form may be a part): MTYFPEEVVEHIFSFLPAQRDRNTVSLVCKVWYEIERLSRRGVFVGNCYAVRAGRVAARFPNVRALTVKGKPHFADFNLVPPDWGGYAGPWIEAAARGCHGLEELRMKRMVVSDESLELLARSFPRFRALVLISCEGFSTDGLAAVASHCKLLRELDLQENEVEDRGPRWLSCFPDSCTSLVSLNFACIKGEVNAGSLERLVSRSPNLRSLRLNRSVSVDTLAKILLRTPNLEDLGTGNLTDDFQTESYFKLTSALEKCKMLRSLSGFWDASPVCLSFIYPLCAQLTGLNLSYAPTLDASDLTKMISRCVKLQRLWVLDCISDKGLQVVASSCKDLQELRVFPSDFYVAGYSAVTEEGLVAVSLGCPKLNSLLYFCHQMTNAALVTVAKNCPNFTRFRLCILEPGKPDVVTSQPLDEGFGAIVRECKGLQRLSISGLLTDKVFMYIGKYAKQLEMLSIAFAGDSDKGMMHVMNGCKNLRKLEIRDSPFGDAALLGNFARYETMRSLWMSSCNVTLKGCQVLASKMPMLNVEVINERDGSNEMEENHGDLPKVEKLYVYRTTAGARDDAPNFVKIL
T1 sequence (P93830 63-109): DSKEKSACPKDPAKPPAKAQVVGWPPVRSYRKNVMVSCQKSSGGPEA

Regarding `O=C(O)Cc1c[nH]c2ccccc12` [auxin, indole-3-acetic acid], for the setting “A-NANOG #2 mESCs, 50 μM auxin, 30 minutes, western blot”, the “depletion of A-NANOG” value was “complete depletion”. Moreover, for the setting “pRAIDRS system, auxin-dependent protein depletion”, the “time for >95% degradation of NANOG” value fell in the range of 20 to 30 min.
